Where no end group is shown, it is not given here. The star is where a group is joined. Biotin = O=C1N[C@H]2[C@H](CS[C@H]2CCCCC(=O)*)N1

For assay [1], the target named is T1, PKA (Homo sapiens, UniProt P17612). To be noted: read-out: affinity for PKA; cited from earlier work.
Assay [2] addresses T1, PKA. To be noted: 132 nM PKA, even at the highest ATP concentration applied.
Method: The effect of ATP on the PKA-PKI binding was also evaluated using an SPR analyzer, Biacore 3000 biosensor system (Biacore, U.S.A.). The surface of a CM5 sensor chip (Biacore, Applied Biosystems, U.S.A.) was activated with N-ethyl-N′-(3-dimethylaminopropyl)carbodiimide (EDC) and N-hydroxysuccinimide (NHS), and 50 μg/mL streptavidin was applied thereto, to immobilize on the surface of sensor via an amine-coupling method. […] The mixture solutions of 132 nM PKA and varying concentrations of ATP were applied at the rate of 30 μM/min for 100 seconds, and the buffer solution was then applied for 200 seconds, to obtain sensorgrams.

Consider Biotin-LRRAALG [biotin-Ala-kemptide], for which the Kd in assay [1] was 10 µM. Further, the “binding of PKA to immobilized peptide (SPR)” value in assay [2] is reported as “not observed”.

Source of the values: patent US7582471B2, “Biosensor for the detection of protein kinase A, and kit comprising the same” (Korea Institute of Science and Technology, priority 2006, dated 2009).
